Measurements: US20240376607A1, “METHOD AND COMPOSITION FOR TREATING DILUTION STEAM GENERATOR SYSTEMS” (BL Technologies, Inc., priority 2021, published 2024)
“Also recorded” adds a separate entry of the source.

Assay: Electrochemical corrosion rate measurement (Rp/Ec trend) in DSG water
Details: DSG Water B, 100 ppm active
Method: Electrochemical measurements were carried out using Gamry 600+ Potentiostat coupled with DC105™ Corrosion Techniques Software. Experiments were performed with a conventional three-electrode electrochemical cell and by employing the Rp/Ec trend technique. All tests were carried out for 24 hours at pH=8.2 to 8.8 and at T=22±0.2° C. (maintained with a recirculating water bath). A Teflon® liner was used to avoid filmer loss to the corrosion cell. The corrosion rates are measured in milli-inch per year (mpy). Pre-cleaned low carbon steel (LCS) coupons having a total surface area of 2.95 in^2 and a density of 7.87 g/cm^3 were used for testing the corrosion inhibitor treatments.

In the case of octenyl succinic acid [OSA], the “corrosion inhibition (FIG. 1)” value (LCS coupons) is reported as “inhibit corrosion; also recorded: not as robust as the Polyamine sample” and the “corrosion rate (FIG. 2)” value (rate it increases to, 20 hours) is reported as 8 mpy.
